From patent US9469853B2, “MCPIP protection against osteoclast production” (University of Central Florida Research Foundation, Inc., priority 2005, dated 2016)

How the values were obtained:
p47PHOX = p47PHOX expression and membrane translocation (immunoblot); format: cell-based, human
Procedure: (§1) BMCs were cultured in α-MEM supplemented with 10% FBS containing 30 ng/ml M-CSF, 100 U/ml penicillin, and 100 μg/ml streptomycin in 5% CO2 at 37° C. OC precursor cells were induced after 3-day culture as Ha et al. (2010). At this point, cells were treated with 50 ng/ml MCP-1, inhibitors, or gene transfection. For inhibitor treatment, CeO2 (10 μM), apocynin (100 μg/ml), TUDC (100 μM), 3′-MA (50 μM), and LY294002 (20 μM) were added 6 h before gene transfection.
OC precursor cells were transfected with 1 μg GFP or MCPIP-GFP eukaryotic expression plasmids for gene-gain-function assay by using Fugene 6. […]
OC precursor cells were harvested, sonicated on ice in a buffer containing 100 mM KCl, 3 mM NaCl, 3.5 mM MgCl2, 10 mM HEPES, 1 mM EGTA, 10 μg/ml pepstatin, 10 μg/ml leupeptin, and 0.5 mM PMSF; lysates were centrifuged at 600 g for 10 min at 4° C. to remove nuclei and unbroken cells. […] Membranes were washed in the same buffer, quantified (Lemarie), and resuspended in Laemmli sample buffer, before western blot analysis.
(§2) Sodium dodecyl sulfate-polyacrylamide gel electrophoresis (SDS-PAGE) and western blotting were performed as described elsewhere. […] The specific protein bands were quantified by densitometric analysis with GS-690 Image Densitometer (Bio-Rad).

[1] = tested on: human bone marrow mononuclear cells (BMCs); test: TRAP staining, TRAP-positive OC precursor cell formation; format: cell-based; conditions: substance alone, 50 ng/ml MCP-1, human BMCs
Procedure: as §1
(§3) OC precursor cells were transfected with 1 μg GFP or MCPIP-GFP eukaryotic expression plasmids for gene-gain-function assay by using Fugene 6. For gene silencing, chemically synthesized siRNA duplex (100 nM) targeting MCPIP, IRE-1, or Beclin-1 was transfected into OC precursor cells using DharmaFECT (Dharmacon) for 24 h prior to transfection with MCPIP-GFP or GFP plasmid. A scrambled siRNA was used as a negative control. […]
Three days after MCP-1 treatment or 4 days after MCPIP transfection, cells were fixed for histological staining for TRAP as described previously (Kim et al., 2006a). […] On each coverslip, totally at least 500 cells were examined and the TRAP-positive cells were counted in 3-5 fields (20× objective), and the percentage of TRAP-positive cells was calculated.

GRP78 and IRE-1 = test: ER stress markers GRP78 and IRE-1 expression; format: cell-based, human; conditions: for expression of ER stress markers GRP78 and IRE-1: substance alone; for MCPIP-induced expression of GRP78: autophagy inhibition, MCPIP-transfected BMCs; for MCPIP-induced expression of GRP78 and IRE-1: pretreatment prior to MCPIP transfection, immunoblot
Procedure: as §1
(§4) OC precursor cells were transfected with 1 μg GFP or MCPIP-GFP eukaryotic expression plasmids for gene-gain-function assay by using Fugene 6. For gene silencing, chemically synthesized siRNA duplex (100 nM) targeting MCPIP, IRE-1, or Beclin-1 was transfected into OC precursor cells using DharmaFECT (Dharmacon) for 24 h prior to transfection with MCPIP-GFP or GFP plasmid. A scrambled siRNA was used as a negative control. For knockdown expression of p47^PHOX, specific antisense (AS) (5′-[…]-3′ (SEQ ID NO: 5)) and sense (5′-[…]-3′ (SEQ ID NO: 6)) oligonucleotides were designed and synthesized by phosphorothioate modification by Integrated DNA Technologies. The oligonucleotides were transfected into OC precursor cells using Lipofectamine 2000 for 24 h before MCPIP-GFP plasmid transfection.
(§5) Cells were centrifuged after wash with PBS for twice. Cell pellet was resuspended in 1 ml Trizol reagent and the total RNA was extracted with chloroform and isopropanol, purified on Qiagen Mini-Prep column, and treated with DNase. High Capacity cDNA Reverse Transcription kit (Applied Biosystems) was used for cDNA preparation from 1 μg total RNA. qRT-PCR was done in triplicate in an ABI PRISM 7900HT Sequence Detection System with 5% cDNA product, primers (Supplementary Table S1) at 125 nM, and Fast SYBR Green Master Mix (Applied Biosystems). Relative quantitation of PCR products was done by the 2^−ΔΔCT method, CT=cycles to threshold, and ^ΔΔCT=(target gene CT)−(β-actin reference gene CT). Final data were described as fold changes against control cells.
(§6) Sodium dodecyl sulfate-polyacrylamide gel electrophoresis (SDS-PAGE) and western blotting were performed as described elsewhere. Samples (30 μg of protein) were subjected to 12% SDS-PAGE for most of target protein and 18% SDS-PAGE for LC3-II and LC3, transferred onto PVDF membranes (Millipore), and assayed for MCPIP, p47^PHOX, TRAP, CTSK, GRP78, IRE-1, Beclin-1, LC3-II, and β-actin or Fas (loading control) protein expression by chemiluminescence detection (Pierce ECL kit) according to the manufacturer's instructions. The specific protein bands were quantified by densitometric analysis with GS-690 Image Densitometer (Bio-Rad).

[2] = tested on: αV integrin, β3 integrin, and MMP9; test: Expression of OC functional markers αV integrin, β3 integrin, MMP9; format: cell-based, human; conditions: substance alone
Procedure: as §1, §3
(§7) Cells were centrifuged after wash with PBS for twice. […] Relative quantitation of PCR products was done by the 2^−ΔΔCT method, CT=cycles to threshold, and ^ΔΔCT=(target gene CT)−(β-actin reference gene CT). […]
as §2

ROS production in BMCs = test: ROS production (DHR123 oxidation); format: cell-based, human
Procedure: as §1
as §4, with “The oligonucleotides were transfected into OC precursor cells using Lipofectamine 2000 for 24 h before MCPIP-GFP plasmid transfection.” left out
Oxidant production in OC precursor cells was assessed by measuring the oxidation of intracellular DHR123 (Molecular Probes) as described previously (Younce et al., 2010). ROS production was expressed as folds compared with control cells expressing GFP alone.

MCPIP = MCPIP expression (immunoblot, real-time PCR); format: cell-based, human
Procedure: as §1, §3, §7, §2

[3] = tested on: TRAP and CTSK expression in BMCs; test: Expression of OC markers TRAP and CTSK (immunoblot, real-time PCR); format: cell-based, human; conditions: for expression of TRAP and CTSK: substance alone, no other inducer, protein and mRNA; for MCPIP-induced expression of TRAP and CTSK: MCPIP-transfected BMCs, inhibitors 6 h (CeO2 10 μM, apocynin 100 μg/ml, TUDC 100 μM, 3′-MA 50 μM, LY294002 20 μM) or siRNA/antisense 24 h before transfection
Procedure: as §1, §4, §5, §6

Beclin-1, LC3, Atg7 = test: Autophagy markers (Beclin-1, LC3 lipidation, Atg7) expression; format: cell-based, human; conditions: MCPIP-transfected BMCs
Procedure: as §1, §4, §5, §6

[4] = pretreatment prior to MCPIP transfection

Compound: MCP-1: human MCP-1, a CC chemokine, purchased from Invitrogen
- expression of p47PHOX and its translocation from the cytoplasm into the membrane (p47PHOX; substance alone): increased
- TRAP-positive OC precursor cell formation [1]: induced
- expression of ER stress markers GRP78 and IRE-1 (GRP78 and IRE-1): induced
- expression of αV integrin, β3 integrin, and MMP9 [2]: did not affect
- ROS generation (ROS production in BMCs; substance alone, DHR123 staining): remarkably increased
- MCPIP protein and mRNA levels (MCPIP; substance alone, 50 ng/ml MCP-1): induced up-regulation
- expression of TRAP and CTSK [3]: induced

Compound: C/C=C(/C)C(=O)O[C@H]1C(C)=C2[C@H]([C@@H]1OC(=O)CCCCCCC)[C@@](C)(OC(C)=O)C[C@H](OC(=O)CCC)[C@@]1(O)[C@H]2OC(=O)[C@@]1(C)O [thapsigargin]
- expression of ER stress markers GRP78 and IRE-1 (GRP78 and IRE-1): induced
- expression of TRAP and CTSK [3]: induced

Compound: O=c1cc(N2CCOCC2)oc2c(-c3ccccc3)cccc12 [LY294002]
- MCPIP-induced expression of GRP78 (GRP78 and IRE-1): no effect

Compound: COc1cc(C(C)=O)ccc1O [apocynin]
- MCPIP-induced expression and membrane translocation of p47PHOX (p47PHOX; [4]): inhibited
- MCPIP-induced expression of GRP78 and IRE-1 (GRP78 and IRE-1): attenuated
- MCPIP-induced ROS production (ROS production in BMCs; [4]): suppressed
- MCPIP-induced expression of TRAP and CTSK [3]: suppressed
- MCPIP-induced expression of Beclin-1 (Beclin-1, LC3, Atg7): inhibited significantly

Compound: tunicamycin
- expression of ER stress markers GRP78 and IRE-1 (GRP78 and IRE-1): induced
- expression of TRAP and CTSK [3]: induced

Compound: Cn1cnc(N)c2ncnc1-2 [3′-MA, 3′-methyladenine]
- MCPIP-induced expression of GRP78 (GRP78 and IRE-1): no effect
- MCPIP-induced expression of TRAP and CTSK [3]: significantly inhibited
- MCPIP-induced expression of Beclin-1 (Beclin-1, LC3, Atg7): significantly inhibited
- lipidation of LC-3 (Beclin-1, LC3, Atg7; immunoblot): inhibited

Compound: C[C@H](CCC(=O)NCCS(=O)(=O)O)[C@H]1CC[C@H]2[C@@H]3[C@@H](O)C[C@@H]4C[C@H](O)CC[C@]4(C)[C@H]3CC[C@]12C [TUDC, tauroursodeoxycholate]
- MCPIP-induced expression of GRP78 and IRE-1 (GRP78 and IRE-1): inhibits
- expression of MCPIP after MCPIP transfection (MCPIP; MCPIP-transfected BMCs): did not affect
- MCPIP-induced expression of TRAP and CTSK [3]: significantly inhibited
- MCPIP-induced expression of Beclin-1 (Beclin-1, LC3, Atg7): inhibited significantly
